One data set deals with NT CB-NK cells. As to the kind of experiment: Dimerizer effect on non-transduced cells (annexin-V/7AAD staining). It counts as cell-based. The conditions noted are these: 10 nM dimerizer. From the text:
iC9/CAR.19/IL15+ CB-NK cells are eliminated after activation of the suicide gene by exposure to a small-molecule dimerizer. To counteract the possibility of excessive toxicity mediated by the release of inflammatory cytokines by transduced CB-NK cells or uncontrolled NK cell growth, we incorporated a suicide gene based on the inducible caspase-9 gene in the construct (Di et al., 2011). […] The suicide gene was also effective in vivo.

The conditions of data set [1]: cited from earlier work.
For the next data set, the system named is GVHD. Particulars: patients who had received Capsase-9+ T cells; cited from earlier work.
The conditions of data set [2]: cited from earlier work. This is another data set of the same source.
Data set [3] concerns the target CD19 on CD19+ Raji cells and primary CLL cells (UniProt P15391). As to the kind of experiment: cell-based or functional assay.
Another data set relates to CLL. The conditions noted are these: alone or in combination with a corticosteroid; cited from earlier work.

Data on 4 molecules can be found in US20220325245A1 (Board of Regents, The University of Texas System, priority 2019, published 2022).

Read-outs that look alike come from different tables or passages of the source.

Sequence of UniProt P15391 (P15391 20-556 limits assumed): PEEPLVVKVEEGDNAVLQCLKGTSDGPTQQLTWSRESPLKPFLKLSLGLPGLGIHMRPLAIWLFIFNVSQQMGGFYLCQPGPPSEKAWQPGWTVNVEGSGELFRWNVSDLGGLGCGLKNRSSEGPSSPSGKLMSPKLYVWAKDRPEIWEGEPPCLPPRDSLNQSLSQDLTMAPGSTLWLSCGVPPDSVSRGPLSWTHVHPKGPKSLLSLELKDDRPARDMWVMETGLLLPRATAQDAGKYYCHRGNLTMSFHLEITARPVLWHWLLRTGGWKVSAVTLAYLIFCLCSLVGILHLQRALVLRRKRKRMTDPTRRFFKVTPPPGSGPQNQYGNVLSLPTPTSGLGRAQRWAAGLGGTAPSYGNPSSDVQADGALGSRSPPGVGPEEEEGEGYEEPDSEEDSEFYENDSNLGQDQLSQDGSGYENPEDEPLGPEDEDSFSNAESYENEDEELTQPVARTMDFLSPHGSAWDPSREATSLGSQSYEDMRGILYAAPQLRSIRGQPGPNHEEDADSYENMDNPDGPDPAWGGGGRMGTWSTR

Regarding `CC[C@H](C(=O)N1CCCC[C@H]1C(=O)O[C@H](CCc1ccc(OC)c(OC)c1)c1cccc(OCC(=O)NCCNC(=O)COc2cccc([C@@H](CCc3ccc(OC)c(OC)c3)OC(=O)[C@@H]3CCCCN3C(=O)[C@@H](CC)c3cc(OC)c(OC)c(OC)c3)c2)c1)c1cc(OC)c(OC)c(OC)c1` [AP1903], in the data set with NT CB-NK cells, the “viability of NT CB-NK cells” value is “no effect”. The plasma concentrations in data set [1] (0.01 mg/kg to 1.0 mg/kg dose range) is 10 to 1275 ng/mL. Further, the “plasma level, percent of maximum” value is listed as 18% in data set [1] (0.5 hrs post dose) and 7% in data set [1] (2 hrs post dose). In addition, in the data set on GVHD, the “time to response of GVHD” value was 24 to 48 h.

Turning to “RhIL-15: exogenous recombinant human IL-15”, the “maximum serum concentration (Cmax)” value is on record as 1,260±350 pg/mL in data set [2] (0.3 μg/kg per day), 15,900±1,900 pg/mL in data set [2] (1.0 μg/kg per day) and 43,800±18,300 pg/mL in data set [2] (3.0 μg/kg per day). Besides, the dose-limiting toxicities result in data set [2] (3.0 and 1.0 μg/kg per day) is “grade 3 hypotension, thrombocytopenia, and elevations of ALT and AST”. Further, the maximum-tolerated dose in data set [2] (bolus infusions for 12 consecutive days) is recorded as 0.3 μg/kg per day. The immune cell activation entry in data set [2] (patients) is “activate NK cells, monocytes, γδ, and CD8 T cells”.

The molecule “anti-CD19 chimeric antigen receptor (scFv against CD19, human IgG CH2-CH3 hinge, CD28 transmembrane domain, CD28.CD3zeta signaling endodomain) expressed on cord blood NK cells from the iC9/CAR.19/IL15 retroviral vector” came in with an IL15 release in culture supernatant with CD19+ CLL B cells (pg/mL/10^6 cells) in data set [3] of 27.6.

Take `O=C(O)CCCc1ccc(N(CCCl)CCCl)cc1` [chlorambucil]: in the data set with CLL, the complete remission rates is given as 5-20% and the overall response rate is given as 50-70%.
